# Species on record: Mus musculus
# Assay: Compound was evaluated for Antihyperglycemic activity in KKAy mice, glucose level for the treated group (T) over the anti-hyperglycaemic activity
# Type: functional
row,SMILES,T/C
1,CC(=O)c1ccc(CCOc2ccc(CC3SC(=O)NC3=O)cc2)nc1 (stereo unspecified),0.74
2,CCc1ccc(C(=O)COc2ccc(CC3SC(=O)NC3=O)cc2)nc1 (stereo unspecified) [MITOGLITAZONE],0.39
3,O=C(O)Cc1ccc(CCOc2ccc(CC3SC(=O)NC3=O)cc2)nc1 (stereo unspecified),0.91
4,CCc1ccc(C(O)COc2ccc(CC3SC(=O)NC3=O)cc2)nc1 (stereo unspecified),0.78
5,CC(O)c1ccc(CCOc2ccc(CC3SC(=O)NC3=O)cc2)nc1 (stereo unspecified) [LERIGLITAZONE],0.74
6,CCc1ccc(CCOc2ccc(CC3SC(=O)NC3=O)cc2)nc1 (stereo unspecified) [PIOGLITAZONE],0.49

# — ChEMBL document CHEMBL1129603, “Synthesis and biological activity of metabolites of the antidiabetic, antihyperglycemic agent pioglitazone” (1996)
